Format: physicochemical
Details: pH 9

COC1=CC=C2[C@H]3Cc4ccc(O)c5c4[C@@]2(CCN3C)[C@H]1O5 [oripavine]
% in the solvent after a 1-stage extraction (corresponding to D): 93.3% | maximum D value: 14.5 | single stage extraction efficiency for oripavine: 96%

Source: patent US20250188090A1, “A METHOD FOR EXTRACTION OF ALKALOID” (priority 2022, published 2025)
